Assay results: the kinase profiling compilation of Christmann-Franck et al. (2016)

Assays:
Assay in all cases: KINOMEscan competition binding
Settings in all cases: compound 10.0 µM
ACVR1B (human) = ACVR1B (human) (UniProt P36896)
BMPR1A (human) = BMPR1A (human) (UniProt P36894)
CDC42BPA (human) = CDC42BPA (human) (UniProt Q5VT25)
CDK15 (human) = CDK15 (human) (UniProt Q96Q40)
CDK3 (human) = CDK3 (human) (UniProt Q00526)
CLK1 (human) = CLK1 (human) (UniProt P49759)
CSK (human) = CSK (human) (UniProt P41240)
CSK (human), sequence (P41240 whole entry, looked up): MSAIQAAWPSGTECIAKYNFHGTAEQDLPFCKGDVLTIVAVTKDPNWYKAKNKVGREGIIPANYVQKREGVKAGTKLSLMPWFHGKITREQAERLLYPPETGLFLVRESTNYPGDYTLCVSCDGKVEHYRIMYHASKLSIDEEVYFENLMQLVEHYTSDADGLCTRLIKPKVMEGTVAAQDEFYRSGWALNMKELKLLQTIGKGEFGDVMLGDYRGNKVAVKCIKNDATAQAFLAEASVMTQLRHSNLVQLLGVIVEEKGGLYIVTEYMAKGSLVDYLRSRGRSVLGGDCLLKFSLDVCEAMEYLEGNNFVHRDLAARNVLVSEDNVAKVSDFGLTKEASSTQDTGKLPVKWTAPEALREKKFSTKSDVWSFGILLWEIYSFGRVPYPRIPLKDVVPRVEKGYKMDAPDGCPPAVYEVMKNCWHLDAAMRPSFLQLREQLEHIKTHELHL

FGFR1 (human) = FGFR1 (human) (UniProt P11362)
FLT3 (human) = FLT3 (human) (UniProt P36888)
GRK4 (human) = GRK4 (human) (UniProt P32298)
HIPK1 (human) = HIPK1 (human) (UniProt Q86Z02)
HIPK1 (human), sequence (Q86Z02 whole entry, looked up): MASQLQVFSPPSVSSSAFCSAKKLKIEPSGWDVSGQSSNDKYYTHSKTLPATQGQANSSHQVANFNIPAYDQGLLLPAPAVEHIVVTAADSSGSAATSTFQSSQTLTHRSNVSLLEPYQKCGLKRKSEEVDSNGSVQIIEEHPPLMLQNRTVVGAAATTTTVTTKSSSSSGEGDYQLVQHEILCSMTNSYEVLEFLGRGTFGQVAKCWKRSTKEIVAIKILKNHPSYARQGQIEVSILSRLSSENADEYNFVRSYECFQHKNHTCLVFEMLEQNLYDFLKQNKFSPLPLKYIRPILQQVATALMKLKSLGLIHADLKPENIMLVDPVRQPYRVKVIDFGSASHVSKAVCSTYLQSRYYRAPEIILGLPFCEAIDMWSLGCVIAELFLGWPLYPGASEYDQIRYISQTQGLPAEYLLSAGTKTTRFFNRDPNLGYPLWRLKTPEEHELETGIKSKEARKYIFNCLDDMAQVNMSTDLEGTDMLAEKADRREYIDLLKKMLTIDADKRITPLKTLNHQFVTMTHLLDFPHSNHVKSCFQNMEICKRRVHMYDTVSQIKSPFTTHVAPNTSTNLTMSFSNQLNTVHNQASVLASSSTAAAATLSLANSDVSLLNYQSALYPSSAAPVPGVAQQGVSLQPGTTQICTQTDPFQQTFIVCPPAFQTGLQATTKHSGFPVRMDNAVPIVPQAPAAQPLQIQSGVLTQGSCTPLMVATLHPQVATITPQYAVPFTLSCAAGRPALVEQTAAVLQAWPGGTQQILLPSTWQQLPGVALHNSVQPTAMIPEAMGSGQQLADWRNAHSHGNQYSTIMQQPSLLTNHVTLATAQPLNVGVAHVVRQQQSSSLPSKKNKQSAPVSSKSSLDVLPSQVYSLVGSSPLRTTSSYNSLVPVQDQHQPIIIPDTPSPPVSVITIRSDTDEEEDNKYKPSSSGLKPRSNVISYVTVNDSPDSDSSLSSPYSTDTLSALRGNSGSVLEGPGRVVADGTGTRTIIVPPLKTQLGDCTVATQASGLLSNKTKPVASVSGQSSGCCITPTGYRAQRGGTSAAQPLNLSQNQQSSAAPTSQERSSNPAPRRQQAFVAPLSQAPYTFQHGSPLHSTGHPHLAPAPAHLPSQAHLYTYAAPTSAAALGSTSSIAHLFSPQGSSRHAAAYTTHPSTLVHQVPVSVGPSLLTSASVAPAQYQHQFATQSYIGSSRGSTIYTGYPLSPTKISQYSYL

IKBKB (human) = IKBKB (human) (UniProt O14920)
LRRK2 (human) = LRRK2 (human) (UniProt Q5S007)
MAP3K1 (human) = MAP3K1 (human) (UniProt Q13233)
MAP3K4 (human) = MAP3K4 (human) (UniProt Q9Y6R4)
MAP3K4 (human), sequence (Q9Y6R4 whole entry, looked up): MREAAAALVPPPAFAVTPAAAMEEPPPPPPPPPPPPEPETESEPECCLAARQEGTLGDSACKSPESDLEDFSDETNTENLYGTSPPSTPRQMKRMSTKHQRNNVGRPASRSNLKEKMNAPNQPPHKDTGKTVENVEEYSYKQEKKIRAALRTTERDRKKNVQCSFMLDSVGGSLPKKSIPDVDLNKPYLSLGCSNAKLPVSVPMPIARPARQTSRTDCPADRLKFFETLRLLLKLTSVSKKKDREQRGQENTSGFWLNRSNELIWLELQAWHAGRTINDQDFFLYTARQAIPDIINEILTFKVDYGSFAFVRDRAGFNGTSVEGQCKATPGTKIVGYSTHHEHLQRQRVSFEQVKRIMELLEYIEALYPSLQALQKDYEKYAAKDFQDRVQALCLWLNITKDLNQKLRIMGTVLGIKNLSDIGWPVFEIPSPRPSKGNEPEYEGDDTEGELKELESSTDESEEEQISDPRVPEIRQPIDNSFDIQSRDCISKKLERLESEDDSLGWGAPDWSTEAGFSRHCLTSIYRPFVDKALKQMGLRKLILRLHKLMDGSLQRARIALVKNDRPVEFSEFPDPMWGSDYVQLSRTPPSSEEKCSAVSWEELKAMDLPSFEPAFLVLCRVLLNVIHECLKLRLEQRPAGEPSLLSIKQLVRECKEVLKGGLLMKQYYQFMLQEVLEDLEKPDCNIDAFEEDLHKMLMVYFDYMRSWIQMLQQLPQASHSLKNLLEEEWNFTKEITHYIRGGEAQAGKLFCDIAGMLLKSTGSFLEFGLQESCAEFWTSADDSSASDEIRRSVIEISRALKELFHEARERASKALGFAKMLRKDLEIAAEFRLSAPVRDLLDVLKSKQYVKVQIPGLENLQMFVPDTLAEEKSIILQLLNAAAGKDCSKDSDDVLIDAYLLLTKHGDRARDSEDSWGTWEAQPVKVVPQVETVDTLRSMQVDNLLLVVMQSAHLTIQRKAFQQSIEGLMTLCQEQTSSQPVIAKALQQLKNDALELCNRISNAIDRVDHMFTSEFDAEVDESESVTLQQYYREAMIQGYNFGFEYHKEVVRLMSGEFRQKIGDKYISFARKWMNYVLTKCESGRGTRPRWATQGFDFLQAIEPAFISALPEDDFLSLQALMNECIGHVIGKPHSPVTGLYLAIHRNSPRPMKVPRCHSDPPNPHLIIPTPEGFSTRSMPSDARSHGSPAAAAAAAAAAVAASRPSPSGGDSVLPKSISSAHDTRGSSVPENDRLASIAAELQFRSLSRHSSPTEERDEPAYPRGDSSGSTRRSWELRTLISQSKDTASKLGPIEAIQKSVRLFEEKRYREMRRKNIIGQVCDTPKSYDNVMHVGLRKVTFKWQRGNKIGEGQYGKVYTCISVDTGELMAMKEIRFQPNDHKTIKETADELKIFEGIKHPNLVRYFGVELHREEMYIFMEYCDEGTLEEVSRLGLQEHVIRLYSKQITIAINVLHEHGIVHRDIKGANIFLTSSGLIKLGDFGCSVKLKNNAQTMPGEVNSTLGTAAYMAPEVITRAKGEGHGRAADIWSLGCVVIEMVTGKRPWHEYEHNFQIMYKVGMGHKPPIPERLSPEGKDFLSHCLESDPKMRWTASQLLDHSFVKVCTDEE

MAP3K5 (human) = MAP3K5 (human) (UniProt Q99683)
MAP3K7 (human) = MAP3K7 (human) (UniProt O43318)
MAPK10 (human) = MAPK10 (human) (UniProt P53779)
MAPK4 (human) = MAPK4 (human) (UniProt P31152)
MAPKAPK2 (human) = MAPKAPK2 (human) (UniProt P49137)
MAPKAPK2 (human), sequence (P49137 whole entry, looked up): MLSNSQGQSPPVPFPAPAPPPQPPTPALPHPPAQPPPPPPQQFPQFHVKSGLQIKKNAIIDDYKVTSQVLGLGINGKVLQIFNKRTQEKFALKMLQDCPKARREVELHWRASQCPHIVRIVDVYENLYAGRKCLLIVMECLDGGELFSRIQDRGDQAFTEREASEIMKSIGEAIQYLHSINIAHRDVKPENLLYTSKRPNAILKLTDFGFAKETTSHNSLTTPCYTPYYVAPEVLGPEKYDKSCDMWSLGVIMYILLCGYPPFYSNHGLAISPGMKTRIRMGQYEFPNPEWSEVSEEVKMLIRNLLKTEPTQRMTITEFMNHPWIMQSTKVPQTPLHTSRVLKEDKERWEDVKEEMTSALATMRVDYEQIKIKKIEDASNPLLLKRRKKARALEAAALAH

MARK1 (human) = MARK1 (human) (UniProt Q9P0L2)
NLK (human) = NLK (human) (UniProt Q9UBE8)
PDGFRA (human) = PDGFRA (human) (UniProt P16234)
PIM2 (human) = PIM2 (human) (UniProt Q9P1W9)
PIM2 (human), sequence (Q9P1W9 whole entry, looked up): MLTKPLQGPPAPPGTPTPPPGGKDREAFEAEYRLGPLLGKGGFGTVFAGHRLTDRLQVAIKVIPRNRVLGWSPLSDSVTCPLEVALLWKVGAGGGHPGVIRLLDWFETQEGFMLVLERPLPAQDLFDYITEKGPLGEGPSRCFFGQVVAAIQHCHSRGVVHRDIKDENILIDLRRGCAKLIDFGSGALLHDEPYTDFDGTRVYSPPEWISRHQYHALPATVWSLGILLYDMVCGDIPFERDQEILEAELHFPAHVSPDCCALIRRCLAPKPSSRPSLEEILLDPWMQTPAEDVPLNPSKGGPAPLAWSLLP

PIM3 (human) = PIM3 (human) (UniProt Q86V86)
PRKAA1 (human) = PRKAA1 (human) (UniProt Q13131)
PRKAA2 (human) = PRKAA2 (human) (UniProt P54646)
PRKCE (human) = PRKCE (human) (UniProt Q02156)
PRKG2 (human) = PRKG2 (human) (UniProt Q13237)
RET (human) = RET (human) (UniProt P07949)
ROCK1 (human) = ROCK1 (human) (UniProt Q13464)
SIK1 (human) = SIK1 (human) (UniProt P57059)
SRPK3 (human) = SRPK3 (human) (UniProt Q9UPE1)
STK17A (human) = STK17A (human) (UniProt Q9UEE5)
STK25 (human) = STK25 (human) (UniProt O00506)
STK36 (human) = STK36 (human) (UniProt Q9NRP7)
TAOK3 (human) = TAOK3 (human) (UniProt Q9H2K8)
TIE1 (human) = TIE1 (human) (UniProt P35590)
TNNI3K (human) = TNNI3K (human) (UniProt Q59H18)
[1] = molecular target: TYK2 JH2 pseudokinase (human) (UniProt P29597)

CDK15 (human), sequence (Q96Q40 whole entry, looked up): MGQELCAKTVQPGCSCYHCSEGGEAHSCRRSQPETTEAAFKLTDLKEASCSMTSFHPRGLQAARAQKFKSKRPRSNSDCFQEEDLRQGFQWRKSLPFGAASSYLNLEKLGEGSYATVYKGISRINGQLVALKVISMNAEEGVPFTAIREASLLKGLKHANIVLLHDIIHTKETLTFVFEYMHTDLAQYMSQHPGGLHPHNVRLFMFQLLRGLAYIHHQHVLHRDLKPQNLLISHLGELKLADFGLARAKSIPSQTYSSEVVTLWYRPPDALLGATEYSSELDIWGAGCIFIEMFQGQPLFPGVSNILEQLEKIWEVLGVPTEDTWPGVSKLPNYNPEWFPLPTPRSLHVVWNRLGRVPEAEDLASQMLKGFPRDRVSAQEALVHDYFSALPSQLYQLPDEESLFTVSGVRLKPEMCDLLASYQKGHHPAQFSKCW
CLK1 (human), sequence (P49759 whole entry, looked up): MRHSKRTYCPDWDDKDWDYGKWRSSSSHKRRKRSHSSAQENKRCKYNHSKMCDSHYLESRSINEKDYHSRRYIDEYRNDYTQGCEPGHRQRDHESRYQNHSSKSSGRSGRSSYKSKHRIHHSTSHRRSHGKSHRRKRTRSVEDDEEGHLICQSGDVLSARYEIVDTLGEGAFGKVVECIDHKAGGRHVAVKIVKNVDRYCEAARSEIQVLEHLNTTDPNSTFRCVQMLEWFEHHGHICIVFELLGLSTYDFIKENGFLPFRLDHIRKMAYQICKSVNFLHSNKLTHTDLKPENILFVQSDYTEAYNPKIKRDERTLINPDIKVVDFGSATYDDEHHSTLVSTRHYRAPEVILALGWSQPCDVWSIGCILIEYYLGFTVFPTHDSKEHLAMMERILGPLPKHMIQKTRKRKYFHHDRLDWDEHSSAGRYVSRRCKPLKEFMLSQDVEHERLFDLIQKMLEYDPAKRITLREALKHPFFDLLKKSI

With `COc1cc(C(=O)N2CCC(N3CCN(C)CC3)CC2)ccc1Nc1ncc2c(n1)N(C)c1ccccc1C(=O)N2C` the kinase still bound, per cent of control (ACVR1B (human)) was 100%, the kinase still bound, per cent of control (BMPR1A (human)) was 76% and the kinase still bound, per cent of control (CDC42BPA (human)) was 100%. It also gave a kinase still bound, per cent of control (CDK15 (human)) of 100%, a kinase still bound, per cent of control (CDK3 (human)) of 100% and a kinase still bound, per cent of control (CLK1 (human)) of 28%. It also gave a kinase still bound, per cent of control (CSK (human)) of 90%, a kinase still bound, per cent of control (FGFR1 (human)) of 86% and a kinase still bound, per cent of control (FLT3 (human)) of 100%. The kinase still bound, per cent of control (GRK4 (human)) was 86%, the kinase still bound, per cent of control (HIPK1 (human)) was 100% and the kinase still bound, per cent of control (IKBKB (human)) was 89%. For the same compound, the kinase still bound, per cent of control (LRRK2 (human)) was 0%, the kinase still bound, per cent of control (MAP3K1 (human)) was 95% and the kinase still bound, per cent of control (MAP3K4 (human)) was 100%. It also gave a kinase still bound, per cent of control (MAP3K5 (human)) of 100%, a kinase still bound, per cent of control (MAP3K7 (human)) of 98% and a kinase still bound, per cent of control (MAPK10 (human)) of 77%. For the same compound, the kinase still bound, per cent of control (MAPK4 (human)) was 100%, the kinase still bound, per cent of control (MAPKAPK2 (human)) was 100% and the kinase still bound, per cent of control (MARK1 (human)) was 87%. For the same compound, the kinase still bound, per cent of control (NLK (human)) was 50%, the kinase still bound, per cent of control (PDGFRA (human)) was 100% and the kinase still bound, per cent of control (PIM2 (human)) was 100%. For the same compound, the kinase still bound, per cent of control (PIM3 (human)) was 88%, the kinase still bound, per cent of control (PRKAA1 (human)) was 51% and the kinase still bound, per cent of control (PRKAA2 (human)) was 66%. For the same compound, the kinase still bound, per cent of control (PRKCE (human)) was 100%, the kinase still bound, per cent of control (PRKG2 (human)) was 74% and the kinase still bound, per cent of control (RET (human)) was 100%. The kinase still bound, per cent of control (ROCK1 (human)) was 100%, the kinase still bound, per cent of control (SIK1 (human)) was 77% and the kinase still bound, per cent of control (SRPK3 (human)) was 72%. The kinase still bound, per cent of control (STK17A (human)) was 100%, the kinase still bound, per cent of control (STK25 (human)) was 68% and the kinase still bound, per cent of control (STK36 (human)) was 97%. The kinase still bound, per cent of control (TAOK3 (human)) was 24%, the kinase still bound, per cent of control (TIE1 (human)) was 100% and the kinase still bound, per cent of control (TNNI3K (human)) was 100%. The kinase still bound, per cent of control [1] was 100%.
With `O=c1cc(N2CCOCC2)oc2c(-c3cccc4c3sc3ccccc34)cccc12` the kinase still bound, per cent of control (ACVR1B (human)) was 91%, the kinase still bound, per cent of control (BMPR1A (human)) was 94% and the kinase still bound, per cent of control (CDC42BPA (human)) was 94%. It also gave a kinase still bound, per cent of control (CDK15 (human)) of 85%, a kinase still bound, per cent of control (CDK3 (human)) of 100% and a kinase still bound, per cent of control (CLK1 (human)) of 89%. It also gave a kinase still bound, per cent of control (CSK (human)) of 100%, a kinase still bound, per cent of control (FGFR1 (human)) of 93% and a kinase still bound, per cent of control (FLT3 (human)) of 100%. For the same compound, the kinase still bound, per cent of control (GRK4 (human)) was 100%, the kinase still bound, per cent of control (HIPK1 (human)) was 93% and the kinase still bound, per cent of control (IKBKB (human)) was 100%. The kinase still bound, per cent of control (LRRK2 (human)) was 100%, the kinase still bound, per cent of control (MAP3K1 (human)) was 100% and the kinase still bound, per cent of control (MAP3K4 (human)) was 100%. For the same compound, the kinase still bound, per cent of control (MAP3K5 (human)) was 100%, the kinase still bound, per cent of control (MAP3K7 (human)) was 100% and the kinase still bound, per cent of control (MAPK10 (human)) was 100%. The kinase still bound, per cent of control (MAPK4 (human)) was 100%, the kinase still bound, per cent of control (MAPKAPK2 (human)) was 100% and the kinase still bound, per cent of control (MARK1 (human)) was 100%. The kinase still bound, per cent of control (NLK (human)) was 88%, the kinase still bound, per cent of control (PDGFRA (human)) was 100% and the kinase still bound, per cent of control (PIM2 (human)) was 84%. The kinase still bound, per cent of control (PIM3 (human)) was 65%, the kinase still bound, per cent of control (PRKAA1 (human)) was 100% and the kinase still bound, per cent of control (PRKAA2 (human)) was 100%. The kinase still bound, per cent of control (PRKCE (human)) was 100%, the kinase still bound, per cent of control (PRKG2 (human)) was 93% and the kinase still bound, per cent of control (RET (human)) was 100%. It also gave a kinase still bound, per cent of control (ROCK1 (human)) of 100%, a kinase still bound, per cent of control (SIK1 (human)) of 100% and a kinase still bound, per cent of control (SRPK3 (human)) of 100%. For the same compound, the kinase still bound, per cent of control (STK17A (human)) was 95%, the kinase still bound, per cent of control (STK25 (human)) was 59% and the kinase still bound, per cent of control (STK36 (human)) was 100%. It also gave a kinase still bound, per cent of control (TAOK3 (human)) of 97%, a kinase still bound, per cent of control (TIE1 (human)) of 100% and a kinase still bound, per cent of control (TNNI3K (human)) of 86%. It also gave a kinase still bound, per cent of control [1] of 100%.
